Marks after values point to notes of the source that are not given here.
Columns and labels:
Conditions in all cases: 100 = 100 % disease control, 0 = no disease control relative to controls
[1] = test system: Puccinia recondita f. sp. tritici; assay: Test B: wheat leaf rust, preventive spray on wheat seedlings, visual disease rating
Excerpt: (§1) General protocol for preparing test suspensions for Tests A-I: The test compounds were first dissolved in acetone in an amount equal to 3% of the final volume and then suspended at the desired concentration (in ppm) in acetone and purified water (50/50 mix) containing 250 ppm of the surfactant Trem® 014 (polyhydric alcohol esters). The resulting test suspensions were then used in Tests A-I. Spraying a 200 ppm test suspension to the point of run-off on the test plants was the equivalent of a rate of 500 g/ha.
The test suspension was sprayed to the point of run-off on wheat seedlings. The following day the seedlings were inoculated with a spore suspension of Puccinia recondita f. sp. tritici (the causal agent of wheat leaf rust) and incubated in a saturated atmosphere at 20° C. for 24 h, and then moved to a growth chamber at 20° C. for 7 days, after which time visual disease ratings were made.
(§2) All results are for 200 ppm except where followed by “*” which indicates 40 ppm.

Septoria nodorum = assay: Test C: wheat glume blotch, preventive spray on wheat seedlings, visual disease rating
Procedure: (An asterisk “*” next to the rating value indicates a 40 ppm test suspension.)
The test suspension was sprayed to the point of run-off on wheat seedlings. The following day the seedlings were inoculated with a spore suspension of Septoria nodorum (the causal agent of wheat glume blotch) and incubated in a saturated atmosphere at 20° C. for 48 h, and then moved to a growth chamber at 20° C. for 7 days, after which time visual disease ratings were made.
(§3) A dash (−) indicates no test results. All results are for 200 ppm except where followed by “*” which indicates 40 ppm.

Septoria tritici = assay: Test D: wheat leaf blotch, preventive spray on wheat seedlings, visual disease rating; format: in vivo
Excerpt: A dash (−) indicates no test results.

Alternaria solani = assay: Test F: tomato early blight, preventive spray on tomato seedlings, visual disease rating
Excerpt: General protocol for preparing test suspensions for Tests A-I: The test compounds were first dissolved in acetone in an amount equal to 3% of the final volume and then suspended at the desired concentration (in ppm) in acetone and purified water (50/50 mix) containing 250 ppm of the surfactant Trem® 014 (polyhydric alcohol esters). The resulting test suspensions were then used in Tests A-I. Spraying a 200 ppm test suspension to the point of run-off on the test plants was the equivalent of a rate of 500 g/ha. (An asterisk “*” next to the rating value indicates a 40 ppm test suspension.)
The test suspension was sprayed to the point of run-off on tomato seedlings. The following day the seedlings were inoculated with a spore suspension of Alternaria solani (the causal agent of tomato early blight) and incubated in a saturated atmosphere at 27° C. for 48 h, and then moved to a growth chamber at 20° C. for 5 days, after which time visual disease ratings were made.
as §3

Botrytis cinerea = assay: Test E: tomato Botrytis, preventive spray on tomato seedlings, visual disease rating
Excerpt: as §1
The test suspension was sprayed to the point of run-off on tomato seedlings. The following day the seedlings were inoculated with a spore suspension of Botrytis cinerea (the causal agent of tomato Botrytis) and incubated in saturated atmosphere at 20° C. for 48 h, and then moved to a growth chamber at 24° C. for 3 additional days, after which time visual disease ratings were made.
as §2

[2] = test system: Erysiphe graminis f. sp. tritici; assay: Test A: wheat powdery mildew, preventive spray on wheat seedlings, visual disease rating

Row | SMILES | Test B disease control rating ([1]; 40 ppm (marked *)) | Test C disease control rating (Septoria nodorum; 40 ppm (marked *)) | Test D disease control rating (Septoria tritici; 40 ppm (marked *)) | Test F disease control rating (Alternaria solani; 40 ppm (marked *)) | Test E disease control rating (Botrytis cinerea; 40 ppm (marked *)) | Test A disease control rating ([2]; 40 ppm (marked *)) | Test B disease control rating ([1]; 200 ppm) [%] | Test C disease control rating (Septoria nodorum; 200 ppm) [%] | Test D disease control rating (Septoria tritici; 200 ppm) [%] | Test F disease control rating (Alternaria solani; 200 ppm) [%] | Test E disease control rating (Botrytis cinerea; 200 ppm) [%] | Test A disease control rating ([2]; 200 ppm) [%]
1 | Cc1cnn(-c2ccc(C3CC(C)(c4cccnc4)ON3C)cc2)c1 (stereo not drawn) [Compound 69] | 0* % | 97* % | 12* % | 99* % | 87* % | 0* % |  |  |  |  |  | 
2 | CN1OC(C)(c2cccnc2)CC1c1ccc(Br)cc1Br (stereo not drawn) [Compound 84] |  |  |  |  |  |  | 27 | 60 | 52 | 0 | 43 | 94
3 | CN1OC(C)(c2cccnc2)CC1c1ccc(-n2nc(C(F)(F)F)cc2-c2ccccn2)cc1 (stereo not drawn) [Compound 71] | 28* % | 0* % | 10* % | 12* % | 0* % | 0* % |  |  |  |  |  | 
4 | CN1OC(C)(c2cccnc2)CC1c1cccc(I)c1 (mixture of isomers) [Compound 87] |  |  |  |  |  |  | 0 | 0 | 84 | 0 | 0 | 0
5 | CN1OC(C)(c2cccnc2)CC1c1cccc2c1OC(F)(F)O2 (mixture of isomers) [Compound 89] |  |  |  |  |  |  | 0 | 0 | 36 | 16 | 0 | 0
6 | CN1OC(C)(c2cccnc2)CC1c1ccc(-c2ccn(CC(F)(F)F)n2)cc1 (mixture of isomers) [Compound 80] |  |  |  |  |  |  | 0 | 0 | 94 | 0 | 0 | 0
7 | CN1OC(C)(c2cccnc2)CC1c1cccc2ccccc12 (mixture of isomers) [Compound 62] |  |  |  |  |  |  | 17 | 97 | 80 | 91 | 88 | 97
8 | CN1OC(c2cccnc2)(C(F)(F)F)CC1c1ccc(-n2ccc(C(F)(F)F)n2)cc1 (stereo not drawn) [Compound 45] | 0* % | 0* % | 52* % | 0* % | 0* % | 96* % |  |  |  |  |  | 
9 | Cc1cc(C)n(-c2ccc(C3CC(C)(c4cccnc4)ON3C)cc2)n1 (stereo not drawn) [Compound 50] | 0* % | 87* % | 73* % | 0* % | 84* % | 0* % |  |  |  |  |  | 
10 | CN1OC(C)(c2cccnc2)CC1c1ccccc1Br (stereo not drawn) [Compound 66] |  |  |  |  |  |  | 0 | 0 | 5 | 0 | 0 | 0
11 | CN1OC(C)(c2cccnc2)CC1c1ccc(-c2cncnc2)cc1 (stereo not drawn) [Compound 53] | 0* % | 0* % | 68* % | 31* % | 25* % | 0* % |  |  |  |  |  | 
12 | CN1OC(C)(c2cccnc2)CC1c1cccc2c1OC(F)(F)O2 (stereo not drawn) [Compound 91] |  |  |  |  |  |  | 0 | 0 | 0 | 0 | 0 | 0
13 | CN1OC(C)(c2cccnc2)CC1c1ccc(F)c(F)c1 (stereo not drawn) [Compound 81] |  |  |  |  |  |  | 0 | 0 | 15 | 0 | 78 | 56
14 | CN1OC(C)(c2cccnc2)CC1c1ccc(-n2nc(C(F)(F)F)cc2C(F)(F)F)cc1 (stereo not drawn) [Compound 59] | 0* % | 0* % | 2* % | 0* % | 0* % | 52* % |  |  |  |  |  | 
15 | CN1OC(C)(c2cccnc2)CC1c1cccc(Cl)c1 (stereo not drawn) [Compound 77] |  |  |  |  |  |  | 0 | 0 | 62 | 0 | 0 | 0
16 | CN1OC(C)(c2cccnc2)CC1c1ccc(-c2ccnn2CC(F)(F)F)cc1 (mixture of isomers) [Compound 63] |  |  |  |  |  |  | 0 | 0 | 36 | 8 | 0 | 21
17 | CN1OC(C)(c2cccnc2)CC1c1cccc(F)c1 (stereo not drawn) [Compound 94] |  |  |  |  |  |  | 0 | 0 | 4 | 0 | 0 | 84
18 | Cc1ccn(-c2ccc(C3CC(C)(c4cccnc4)ON3C)cc2)n1 (stereo not drawn) [Compound 42] | 9* % | 100* % | 88* % | 97* % | 99* % | 71* % |  |  |  |  |  | 
19 | CN1OC(C)(c2cccnc2)CC1c1ccc(-n2ccc(-c3cccs3)n2)cc1 (stereo not drawn) [Compound 47] | 0* % | 0* % | 42* % | 0* % | 0* % | 35* % |  |  |  |  |  | 
20 | CN1OC(C)(c2cccnc2)CC1c1ccc(F)c(F)c1 (stereo not drawn) [Compound 82] |  |  |  |  |  |  | 18 | 0 | 40 | 0 | 0 | 0
21 | CN1OC(C)(c2cccnc2)CC1c1ccc(-c2ccncc2)cc1 (stereo not drawn) [Compound 61] | 0* % | 0* % | 5* % | 0* % | 0* % | 0* % |  |  |  |  |  | 
22 | CN1OC(C)(c2cccnc2)CC1c1ccc(-n2nc(-c3ccccn3)cc2C(F)(F)F)cc1 (stereo not drawn) [Compound 75] | 22* % | 0* % | 19* % | 0* % | 0* % | 0* % |  |  |  |  |  | 
23 | CN1OC(C)(c2cccnc2)CC1c1ccc(-n2nc(C(F)(F)F)cc2C(F)(F)F)cc1 (stereo not drawn) [Compound 58] | 0* % | 0* % | 91* % | 8* % | 0* % | 80* % |  |  |  |  |  | 
24 | CN1OC(C)(c2cccnc2)CC1c1ccc(-n2ccc(-c3ccccc3)n2)cc1 (stereo not drawn) [Compound 40] | 0* % | 64* % | 77* % | 0* % | 75* % | 78* % |  |  |  |  |  | 
25 | CN1OC(c2cccnc2)CC1c1ccc(-n2ccc(C(F)(F)F)n2)cc1 (stereo not drawn) [Compound 72] | 100* % | 100* % | 93* % | 94* % | 96* % | 99* % |  |  |  |  |  | 
26 | Cc1cccc(C2CC(C)(c3cccnc3)ON2C)c1 (mixture of isomers) [Compound 98] | 0* % | 0* % | 3* % | 0* % | 0* % | 0* % |  |  |  |  |  | 
27 | CN1OC(C)(c2cccnc2)CC1c1ccc(-n2cc(I)cn2)cc1 (stereo not drawn) [Compound 57] | 0* % | 0* % | 57* % | 0* % | 0* % | 0* % |  |  |  |  |  | 
28 | CN1OC(C)(c2cccnc2)CC1c1ccc(-n2nc(-c3ccccn3)cc2C(F)(F)F)cc1 (stereo not drawn) [Compound 74] | 22* % | 0* % | 2* % | 0* % | 0* % | 0* % |  |  |  |  |  | 
29 | COc1ccc(C2CC(C)(c3cccnc3)ON2C)c2ccccc12 (mixture of isomers) [Compound 68] |  |  |  |  |  |  | 0 | 0 | 65 | 0 | 0 | 0
30 | CN1OC(C)(c2cccnc2)CC1c1ccc(Br)c(F)c1 (stereo not drawn) [Compound 101] |  |  |  |  |  |  | 0 | 86 | 68 | 99 | 100 | 99

From US20090270407A1, “FUNGICIDAL ISOXAZOLIDINES” (E. I. DU PONT DE NEMOURS AND COMPANY, priority 2008, published 2009)
